Reference: US7034005B2, “Use of agent for suppressing infection and proliferation of human immunodeficiency syndrome virus” (The Kitasato Institute, priority 2002, dated 2006)
“Also recorded” adds a separate entry of the source.

Test system: HIV-1BAL strain in M type macrophage (M-MΦ) derived from human monocytes
Assay: Proliferation of HIV-1 in M-MΦ: p24 protein in culture supernatant by sandwich ELISA
Assay type: cell-based
Conditions: HIV-1BAL; for viral production in M-MΦ at 30 μM: incubated for 10 days (FIGS. 21-25); for production of p24 protein in M-MΦ at various concentrations: incubated for 10 days, compared with DMSO (FIGS. 21-25); for p24 protein / viral proliferation in M-MΦ with kinase inhibitor: 10 μM, up to day 14, compared with control group (FIG. 20)
Procedure: Macrophages derived from monocytes were prepared by culturing the recovered monocytes in the presence of M-CSF (macrophage colony-stimulating factor) (10^4 U/ml, provided by Morinaga Milk Co.), granulocytes and granulocyte-macrophage colony-stimulating factor, GM-CSF) (500 U/ml, provided by Japan Scheling Plough Co., Osaka, or purchased from R & S Genzyme-TECHNE Inc.) with RPMI1640 medium added with FCS10% (Nissui Seiyaku Co., Tokyo) for 7–8 days.
The macrophage prepared by differential induction of M-CSF from human monocytes is designated as M type macrophage (M type MΦ or M-MΦ) and the macrophage prepared by differential induction of GM-CSF from human monocytes is designated as GM type macrophage (GM type MΦ or GM-MΦ) Further, alveolar macrophage (alveolar MΦ or A-MΦ) was prepared as follows. Cells in the alveolar lavage liquid obtained from the alveolar lavage of healthy volunteers were recovered, suspended and adhered to plastics, then the non-adhered cells were washed out and the remained adhered cells were designated as the alveolar MΦ.
Infection of HIV-1 to macrophage was performed as follows. Macrophage directed viral strains, HIV-1JR-FL and HIV-1BAL, were infected for 2 hours in contact with M-MΦ, GM-MΦ and A-MΦ (adjusted to 2.5×10^5/well, Flacon No3043: Becton Dickinson Labware, Inc. U.S.)at low concentration (p24 antigen titer 50 ng/ml, TCID50=3000/ml virus to final concentration at 100 pg/ml), and non-adsorbed virus to the macrophage was washed out, and cultured with adding fresh medium. In case of the medium with M-MΦ, M-CSF was added (10^4 U/ml), and that of the medium with GM-MΦ, GM-CSF was added (500 U/ml).
Proliferation of virus was examined with the released viral particles in the culture supernatant after the infection by the sandwich ELISA using two types of anti-p24 antibody (Nu24 and 10B5^13). The following JAM62 and JAM65 were used as LTR (HIV long terminal repeat)-gap gene primer. The following JAM63 and JAM 64 were used as the internal primer for the nested PCR. • JAM62: • 5′-[…]-3′ (SEQ ID NO: 1) • JAM65: • 5′-[…]-3′ (SEQ ID NO: 2) • JAM63: • 5′-GTGTOACTCTGGTAACTAGAGATCC-3′ (SEQ ID NO: 3) • JAM64: • 5′-[…]-3′ (SEQ ID NO: 4) (1-4) Assay of Expression of Tyrosine Kinase Hck Protein and Transcription Factor C/EBPβ Protein
In order to show growth suppression effect of the present invention, among macrolide derivatives, EM, EM201, EM202, EM703, CAM, EM722, EM730, EM732, EM736, EM734, EM735, EM747, EM748, EM743, EM746, EM750 or EM751 was dissolved in DMSO with each 100 mM concentration, and used in dilution with the medium thereafter. A control group was M-MΦ treated only with DMSO used for dissolving macrolide derivatives.
M-MΦ and GM-M Φ were subjected to contact infection with HIV-1BAL strain for 2 hours, added 30 μM of EM, EM201, EM202, EM703, CAM,EM722, EM730, EM732, EM736, EM734, EM735, EM747, EM748, EM743, EM746, EM750 or EM751, incubated for 14 days and amount of p24 protein in the cultured supernatant was assayed in the time-dependent manner.

Compound | viral production in M-MΦ at 30 μM | production of p24 protein in M-MΦ at various concentrations | p24 protein / viral proliferation in M-MΦ with kinase inhibitor
CCCNC1CC(C)OC(OC2C(C)C(OC3CC(C)(OC)C(O)C(C)O3)C(C)C(=O)OC(C(C)(O)C(O)CC)C(C)C3=C(C)CC2(C)O3)C1O (stereo not shown) [EM730, bis-de(3′-N-methyl)-3′-N-propyl-8,9-anhydro-pseudo-erythromycin A 6,9-hemiketal] | inhibit almost completely viral production; also recorded: almost complete inhibition | suppressed depending on the concentration of agent | –
CC[C@@H](O)[C@@](C)(O)[C@@H]1OC(=O)[C@H](C)[C@@H](O[C@H]2C[C@@](C)(OC)[C@@H](O)[C@H](C)O2)[C@H](C)[C@@H](O[C@@H]2O[C@H](C)C[C@H](N3CCCCC3)[C@H]2O)[C@@]2(C)CC(C)=C(O2)[C@@H]1C [EM734, de(3′-dimethylamino)-3′-piperidino-8,9-anhydro-pseudoerythromycin A 6,9-hemiketal] | inhibit almost completely viral production; also recorded: almost complete inhibition | suppressed depending on the concentration of agent | –
CC[C@@H](O)[C@@](C)(O)[C@@H]1OC(=O)[C@H](C)[C@@H](O[C@H]2C[C@@](C)(OC)[C@@H](O)[C@H](C)O2)[C@H](C)[C@@H](O[C@@H]2O[C@H](C)C[C@H](N3CCCC3)[C@H]2O)[C@@]2(C)CC(C)=C(O2)[C@@H]1C [EM735, de(3′-dimethylamino)-3′-pyrrolidino-8,9-anhydro-pseudoerythromycin A 6,9-hemiketal] | inhibit almost completely viral production; also recorded: almost complete inhibition | suppressed depending on the concentration of agent | –
CC[C@@H](O)[C@@](C)(O)[C@@H]1OC(=O)[C@H](C)[C@@H](O[C@H]2C[C@@](C)(OC)[C@@H](O)[C@H](C)O2)[C@H](C)[C@@H](O[C@@H]2O[C@H](C)C[C@H](NC(C)C)[C@H]2O)[C@@]2(C)CC(C)=C(O2)[C@@H]1C [EM736, bis-de(3′-N-methyl)-3′-N-(2-propyl)-8,9-anhydro-pseudoerythromycin A 6,9-hemiketal] | inhibit almost completely viral production; also recorded: almost complete inhibition | suppressed depending on the concentration of agent | –
COC1(C)CC(OC2C(C)C(=O)OC(C(C)=NO)C(C)C3=C(C)CC(C)(O3)C(OC3OC(C)CC(N(C)C)C3O)C2C)OC(C)C1O (stereo not shown) [EM743, de(12-hydroxy)-de[12-(1-hydroxypropyl)]-12-hydroxy-oxime-8,9-anhydro-pseudoerythromycin A 6,9-hemiketal] | inhibit almost completely viral production; also recorded: almost complete inhibition | suppressed depending on the concentration of agent | –
CC[C@@H](O)[C@@](C)(O)[C@@H]1OC(=O)[C@H](C)[C@@H](O[C@H]2C[C@@](C)(OC)[C@@H](O)[C@H](C)O2)[C@H](C)[C@@H](O[C@@H]2O[C@H](C)C[C@H](N3CCOCC3)[C@H]2O)[C@@]2(C)CC(C)=C(O2)[C@@H]1C [EM747, de(3′-dimethylamino)-3′-morpholino-8,9-anhydro-pseudoerythromycin A 6,9-hemiketal] | inhibit almost completely viral production; also recorded: almost complete inhibition | suppressed depending on the concentration of agent | –
COC1(C)CC(OC2C(C)C(=O)OC(C(C)N)C(C)C3=C(C)CC(C)(O3)C(OC3OC(C)CC(N(C)C)C3O)C2C)OC(C)C1O (stereo not shown) [EM750, de(12-hydroxy)-de[12-(1-hydroxypropyl)]-12-amino-8,9-anhydro-pseudoerythromycin A 6,9-hemiketal] | inhibit almost completely viral production; also recorded: almost complete inhibition | suppressed depending on the concentration of agent | –
CN[C@H]1C[C@@H](C)O[C@@H](O[C@@H]2[C@@H](C)[C@H](O[C@H]3C[C@@](C)(OC)[C@@H](O)[C@H](C)O3)[C@@H](C)C(=O)O[C@@H](C(C)O)[C@@H](C)C3=C(C)C[C@@]2(C)O3)[C@@H]1O (stereo partly shown) [EM751, de(3′-N-methyl)-de[12-(1-hydroxypropyl)]-8,9-anhydro-pseudoerythromycin A 6,9-hemiketal] | inhibit almost completely viral production; also recorded: almost complete inhibition | suppressed depending on the concentration of agent | –
CCC(O)C(C)(O)C1OC(=O)C(C)C(O)C(C)C(OC2OC(C)CC(NC)C2O)C2(C)CC(C)=C(O2)C1C (stereo not shown) [EM754, de(3-O-cladinosyl)-de(3′-N-methyl)-8,9-anhydro-pseudoerythromycin A 6,9-hemiketal] | inhibit almost completely viral production; also recorded: almost complete inhibition | suppressed depending on the concentration of agent | –
COc1cccc(-c2cc(=O)c3ccccc3o2)c1N [PD98059, 2-[2-amino-3-methoxyphenyl]-4H-1-benzopyran-4-one, reference compound] | – | – | amount of p24 protein was not different in the control group
C[S+]([O-])c1ccc(-c2nc(-c3ccc(F)cc3)c(-c3ccncc3)[nH]2)cc1 (stereo not shown) [SB203580, 4-[4-fluoro-phenyl]-2-[4-methylsulfinylphenyl]-5-[4-pyridyl]-1H-imidazole, reference compound] | – | – | no p24 protein was almost detected even on day 14
bis-de(3′-N-methyl)-3′-N-benzyl-8,9-anhydro-pseudo-erythromycin A 6,9-hemiketal [EM732] | inhibit almost completely viral production; also recorded: almost complete inhibition | suppressed depending on the concentration of agent | –
bis-de(3′-N-methyl)-3′-N-ethyl-8,9-anhydro-pseudo-erythromycin A 6,9-hemiketal [EM722] | inhibit almost completely viral production; also recorded: almost complete inhibition | suppressed depending on the concentration of agent | –
de(3′-dimethylamino)-3′-[hexahydro-1(1H)-azepinyl]-8,9-anhydro-pseudoerythromycin A 6,9-hemiketal [EM748] | inhibit almost completely viral production; also recorded: almost complete inhibition | suppressed depending on the concentration of agent | –
de[12-(1-hydroxypropyl)]-8,9-anhydro-pseudo-erythromycin A 6,9-hemiketal [EM746] | inhibit almost completely viral production; also recorded: almost complete inhibition | suppressed depending on the concentration of agent | –
